Reference: PubChem BioAssay (NCI)
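Five compound concentrations were applied to cells in 96-well plates for 48 hours; endpoints were derived by simple linear interpolation of the resulting dose-response curve. GI50 = concentration required for 50% inhibition of growth. Definition used: TGI = concentration required for complete inhibition of growth.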

Assays:
Experiment in all cases: NCI anticancer screen, dose series, 48 h
HOP-92 NSCLC = system: HOP-92 NSCLC
HCT-116 colon = system: HCT-116 colon
DU-145 prostate = system: DU-145 prostate
RPMI-8226 leukemia = system: RPMI-8226 leukemia
SF-295 CNS = system: SF-295 CNS
COLO 205 colon = system: COLO 205 colon
OVCAR-4 ovarian = system: OVCAR-4 ovarian
UO-31 renal = system: UO-31 renal
HL-60(TB) leukemia = system: HL-60(TB) leukemia
ACHN renal = system: ACHN renal

SMILES	GI50 (HOP-92 NSCLC) [µM]	TGI (HOP-92 NSCLC) [µM]	GI50 (HCT-116 colon) [µM]	TGI (HCT-116 colon) [µM]	GI50 (DU-145 prostate) [µM]	TGI (DU-145 prostate) [µM]	GI50 (RPMI-8226 leukemia) [µM]	TGI (RPMI-8226 leukemia) [µM]	GI50 (SF-295 CNS) [µM]	TGI (SF-295 CNS) [µM]	GI50 (COLO 205 colon) [µM]	TGI (COLO 205 colon) [µM]	GI50 (OVCAR-4 ovarian) [µM]	TGI (OVCAR-4 ovarian) [µM]	GI50 (UO-31 renal) [µM]	TGI (UO-31 renal) [µM]	GI50 (HL-60(TB) leukemia) [µM]	TGI (HL-60(TB) leukemia) [µM]	GI50 (ACHN renal) [µM]	TGI (ACHN renal) [µM]
COc1ccc(C(=O)COc2cccc(/C=C3\COc4ccc5ccccc5c4C3=O)c2)cc1	0.786	8.14	4.21	> 100	4.25	> 100	1.15	3.94	2.87	63.6	16.9	> 100	6.53	> 100	20.4	> 100	2.07	6.83	80.7	> 100
O=C(c1cccc(O)c1O)c1cn(Cc2ccc(F)cc2)c2cccc(O)c12	0.361	7.44	3.28	17.1	5.1	17.3	0.564	6.99	5.65	> 46.5	2.77	10.7	3.13	16.2	1.14	5.24	1.36	6.93	3.2	14.9
Cc1nc2ccccc2c(=O)n1NC(=O)c1ccccn1		> 100		> 100		> 100		> 100		> 100		> 100		> 100		> 100		> 100		> 100
COc1cc2oc(-c3ccc(O)cc3)cc(=O)c2c(OC)c1OC		> 100		> 100		> 100		> 100		> 100		> 100		> 100		> 100		> 100		> 100
CN/N=C(/CCN1CCCC1)CC(c1ccccc1)c1c(O)c2ccccc2oc1=O (centres undefined)		41.8		> 100		> 100		> 31.6		> 100		> 91.4		> 100		> 100		> 100		> 100
CCN(CC)c1sc(N(CC)CC)c2c1SSSSS2	2.87	5.92	0.356	1.14	1.8	3.37	0.366	1.36	2.09	4.04	0.937		0.697	2.46	0.867	2.88	3.08	> 100	1.07	3.28
COC(=O)Nc1nc2ccc(Oc3ccc(NC(=O)Nc4ccccc4)cc3)cc2[nH]1	0.555	11.1	0.119	> 10.4	0.254	3.1	0.748	> 10	0.121	2.23	0.0835	0.487	0.207	5.68	1.65	> 25	0.0654	0.295	0.466	> 25
CC(=O)OC1=NN=C2COC(c3ccccc3OC(C)=O)=NN2C1		> 50		> 50		> 50		> 50		> 50		> 50		> 50		> 50		> 50		> 50
CCN(CC)CCCC(C)Nc1c(C)cnc2cc(Cl)c(C)cc12 (centres undefined)	0.288	3.87	2.56	13.6	12.8	27.8	2.38	9.82	11.3	28.1	3.96	> 38.6	10.2	35.7	17.5	> 78.5	3.19	21.2	5.49	31.5
COc1cc(C2=NN(C(C)=O)C(c3ccc(OC(C)=O)cc3OC(C)=O)O2)c(OC(C)=O)c2ccccc12 (centres undefined)	2.07	30.7	0.346	12.2	0.683	> 100	2.74	14.7	1.68	23.8	2.58	10.1	0.306	8.64	0.38	7.12	0.671	2.94	0.447	> 35.6
Cc1cc(SCC(=O)c2ccccc2)nc2ccccc12		> 100		> 100		> 100		> 100		> 100		> 100		> 100		> 100		> 100		> 100
